Drawing on paper PMC7528119, “The rapid “teabag” method for high-end purification of membrane proteins” (Scientific Reports, 2020), this text covers Kd for one compound.

One may read the Kd as the equilibrium constant for the complex coming apart. Read a low Kd as higher affinity.

For the assay, the target named is T1, KCC2 (Monodelphis domestica, UniProt F6WQ48).
T1 construct: gene SLC12A5; N-terminal His and FLAG tag
T1 sequence (F6WQ48 1-1115): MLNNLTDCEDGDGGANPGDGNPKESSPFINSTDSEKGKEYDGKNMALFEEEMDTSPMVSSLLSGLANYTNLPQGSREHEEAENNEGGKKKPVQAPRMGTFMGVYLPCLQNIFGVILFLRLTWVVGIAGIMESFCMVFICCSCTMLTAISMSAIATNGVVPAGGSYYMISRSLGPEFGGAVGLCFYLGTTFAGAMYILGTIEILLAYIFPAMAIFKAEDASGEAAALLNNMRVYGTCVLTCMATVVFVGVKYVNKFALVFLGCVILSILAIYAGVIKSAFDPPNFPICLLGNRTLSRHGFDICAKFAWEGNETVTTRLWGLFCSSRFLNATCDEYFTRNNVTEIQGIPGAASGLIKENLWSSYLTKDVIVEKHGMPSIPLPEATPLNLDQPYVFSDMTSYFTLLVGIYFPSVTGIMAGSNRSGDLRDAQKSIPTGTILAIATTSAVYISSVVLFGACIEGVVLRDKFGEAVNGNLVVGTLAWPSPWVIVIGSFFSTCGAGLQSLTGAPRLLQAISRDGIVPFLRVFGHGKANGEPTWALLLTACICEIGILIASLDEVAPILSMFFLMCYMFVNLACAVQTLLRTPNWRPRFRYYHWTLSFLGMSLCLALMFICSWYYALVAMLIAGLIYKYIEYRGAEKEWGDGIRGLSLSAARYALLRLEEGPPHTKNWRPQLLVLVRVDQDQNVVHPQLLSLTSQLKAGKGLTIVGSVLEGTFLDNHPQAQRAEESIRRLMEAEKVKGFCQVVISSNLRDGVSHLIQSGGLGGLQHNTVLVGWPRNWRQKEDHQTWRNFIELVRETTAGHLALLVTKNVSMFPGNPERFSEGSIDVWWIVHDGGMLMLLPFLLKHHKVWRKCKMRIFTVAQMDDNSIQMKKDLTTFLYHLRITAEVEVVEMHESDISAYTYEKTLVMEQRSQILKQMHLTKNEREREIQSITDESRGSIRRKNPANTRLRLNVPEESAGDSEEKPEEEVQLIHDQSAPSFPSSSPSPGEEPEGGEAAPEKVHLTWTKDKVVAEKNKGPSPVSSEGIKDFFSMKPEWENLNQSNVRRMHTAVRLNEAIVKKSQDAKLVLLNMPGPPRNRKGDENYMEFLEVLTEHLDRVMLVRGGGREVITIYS
The assay can be described thus: SPR steady-state affinity on covalently immobilized KCC2. It is filed as binding.

With `Cc1csc(N(C(=O)CSc2ccc(-c3ccccc3)nn2)C2CC2)n1` [VU0463271], the dissociation constant (Kd) stood at 750 ± 250 nM.
